Question: For Cl.c1ccc2c(CC3=NCCN3)cccc2c1, which solubility (mole fraction) (in 2-methoxyethanol, 278.15 K) is on record?
Answer: 0.0132

Question: And the solubility (mole fraction) (in 2-methoxyethanol, 283.15 K)?
Answer: 0.0157

Question: And the solubility (mole fraction) (in 2-methoxyethanol, 288.15 K)?
Answer: 0.0184

Question: And the solubility (mole fraction) (in 2-methoxyethanol, 293.15 K)?
Answer: 0.0214

Question: What about the solubility (mole fraction) (in 2-methoxyethanol, 298.15 K) of the same compound?
Answer: 0.0246

Question: And the solubility (mole fraction) (in 2-methoxyethanol, 303.15 K)?
Answer: 0.0287

Question: And the solubility (mole fraction) (in 2-methoxyethanol, 308.15 K)?
Answer: 0.0329

Question: What about the solubility (mole fraction) (in 2-methoxyethanol, 313.15 K) of the same compound?
Answer: 0.0366

Question: What about the solubility (mole fraction) (in 2-methoxyethanol, 318.15 K) of the same compound?
Answer: 0.0419

Question: What about the solubility (mole fraction) (in 2-methoxyethanol, 323.15 K) of the same compound?
Answer: 0.0476

Question: And the solubility (mole fraction) (in ethanol, 278.15 K)?
Answer: 0.00313

Question: What about the solubility (mole fraction) (in ethanol, 283.15 K) of the same compound?
Answer: 0.00386

Question: What about the solubility (mole fraction) (in ethanol, 288.15 K) of the same compound?
Answer: 0.00457

Question: What about the solubility (mole fraction) (in ethanol, 293.15 K) of the same compound?
Answer: 0.00545

Question: And the solubility (mole fraction) (in ethanol, 298.15 K)?
Answer: 0.00639

Question: What about the solubility (mole fraction) (in ethanol, 303.15 K) of the same compound?
Answer: 0.0076

Question: And the solubility (mole fraction) (in ethanol, 308.15 K)?
Answer: 0.00893

Question: And the solubility (mole fraction) (in ethanol, 313.15 K)?
Answer: 0.0104

Question: And the solubility (mole fraction) (in ethanol, 318.15 K)?
Answer: 0.012

Question: What about the solubility (mole fraction) (in ethanol, 323.15 K) of the same compound?
Answer: 0.014

Question: What about the solubility (mole fraction) (in isopropanol, 278.15 K) of the same compound?
Answer: 0.000605

Question: And the solubility (mole fraction) (in isopropanol, 283.15 K)?
Answer: 0.000784

Question: And the solubility (mole fraction) (in isopropanol, 288.15 K)?
Answer: 0.00101

Question: And the solubility (mole fraction) (in isopropanol, 293.15 K)?
Answer: 0.0013

Question: What about the solubility (mole fraction) (in isopropanol, 298.15 K) of the same compound?
Answer: 0.00169

Question: What about the solubility (mole fraction) (in isopropanol, 303.15 K) of the same compound?
Answer: 0.00202

Question: And the solubility (mole fraction) (in isopropanol, 308.15 K)?
Answer: 0.00249

Question: What about the solubility (mole fraction) (in isopropanol, 313.15 K) of the same compound?
Answer: 0.00309

Question: And the solubility (mole fraction) (in isopropanol, 318.15 K)?
Answer: 0.00377

Question: And the solubility (mole fraction) (in isopropanol, 323.15 K)?
Answer: 0.00462

Question: And the solubility (mole fraction) (in methanol, 278.15 K)?
Answer: 0.011

Question: What about the solubility (mole fraction) (in methanol, 283.15 K) of the same compound?
Answer: 0.0137

Question: What about the solubility (mole fraction) (in methanol, 288.15 K) of the same compound?
Answer: 0.0164

Question: And the solubility (mole fraction) (in methanol, 293.15 K)?
Answer: 0.0198

Question: What about the solubility (mole fraction) (in methanol, 298.15 K) of the same compound?
Answer: 0.0243

Question: And the solubility (mole fraction) (in methanol, 303.15 K)?
Answer: 0.0287

Question: What about the solubility (mole fraction) (in methanol, 308.15 K) of the same compound?
Answer: 0.0337

Question: And the solubility (mole fraction) (in methanol, 313.15 K)?
Answer: 0.04

Question: And the solubility (mole fraction) (in methanol, 318.15 K)?
Answer: 0.0462

Question: And the solubility (mole fraction) (in methanol, 323.15 K)?
Answer: 0.0527
